Results on 19 compounds are retold here after patent US20110028448A1, “PYRIDINE COMPOUNDS” (priority 2008, published 2011).

A value given as a limit tells only on which side of the number the result lay.

The EC50 is the concentration giving half of the maximal effect.

Chain of recombinant human S1P1 receptor (P21453 whole entry): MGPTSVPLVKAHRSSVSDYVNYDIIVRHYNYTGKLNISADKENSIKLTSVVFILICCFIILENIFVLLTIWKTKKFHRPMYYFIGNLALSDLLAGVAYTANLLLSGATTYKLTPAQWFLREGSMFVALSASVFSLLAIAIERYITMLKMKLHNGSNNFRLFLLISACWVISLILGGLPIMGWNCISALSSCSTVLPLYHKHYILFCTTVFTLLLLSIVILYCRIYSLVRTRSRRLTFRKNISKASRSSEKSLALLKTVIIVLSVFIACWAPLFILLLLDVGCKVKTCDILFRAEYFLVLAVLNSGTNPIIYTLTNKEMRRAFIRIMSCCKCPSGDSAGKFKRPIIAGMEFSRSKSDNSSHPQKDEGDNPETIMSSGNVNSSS

The first assay has as its target recombinant human S1P1 receptor (Homo sapiens, UniProt P21453). Nature of the assay: GTPγS assay to determine EC50 values. Type of assay: biochemical.
Conditions: not given
How it is done: GTPγS Assay to Determine EC50 Values
The pH is 7.4. Test compounds are dissolved and diluted in 100% DMSO and pre-incubated at room temperature for 30 min in 150 μl of the above assay buffer, in the absence of ^35S-GTPγS. After addition of 50 μl of ^35S-GTPγS, the assay is incubated for 1 h at rt. […] Membrane-bound ^35S-GTPγS is measured with a TopCount from Packard Biosciences.
Specific binding is determined by subtracting non-specific binding from maximal binding. Maximal binding is the amount of cpm bound to the Multiscreen plate in the presence of 10 μM of S1P. Non-specific binding is the amount of binding in the absence of an agonist in the assay.
Regarding `CCc1cc(-c2nc(-c3cc(C)c(CCC(=O)NCCO)c(CC)c3)no2)cnc1N(C)C(C)C` [Example 46, 3-(2-Ethyl-4-{5-[5-ethyl-6-(isopropyl-methyl-amino)-pyridin-3-yl]-[1,2,4]oxadiazol-3-yl}-6-methyl-phenyl)-N-(2-hydroxy-ethyl)-propionamide], the EC50 was 5 nM.

Staying with this assay, now noted: 35S-GTPγS binding, membrane preparations of CHO cells expressing recombinant human S1P1 receptor; read-out: EC50.
Consider `CCc1cc(-c2noc(-c3cnc(N(C)CC)c(C)c3)n2)cc(C)c1OC[C@H](O)CNC(=O)CO` [Example 6, N-[(R)-3-(2-Ethyl-4-{5-[6-(ethyl-methyl-amino)-5-methyl-pyridin-3-yl]-[1,2,4]oxadiazol-3-yl}-6-methyl-phenoxy)-2-hydroxy-propyl]-2-hydroxy-acetamide], for which the EC50 turned out to be 3 nM.
For the compound `CCc1cc(-c2noc(-c3cnc(N(C)C(C)C)c(C)c3)n2)cc(C)c1OC[C@@H](O)CNC(=O)CO` [Example 15, N-[(S)-3-(2-Ethyl-4-{5-[6-(isopropyl-methyl-amino)-5-methyl-pyridin-3-yl]-[1,2,4]oxadiazol-3-yl}-6-methyl-phenoxy)-2-hydroxy-propyl]-2-hydroxy-acetamide], the half-maximal effective concentration (EC50) was 20 nM.
In the case of `CCc1cc(-c2nc(-c3cc(C)c(OC[C@@H](O)CO)c(CC)c3)no2)cnc1N(CC)CC` [Example 24, (S)-3-{4-[5-(6-Diethylamino-5-ethyl-pyridin-3-yl)-[1,2,4]oxadiazol-3-yl]-2-ethyl-6-methyl-phenoxy}-propane-1,2-diol], the EC50 was found to be 12 nM.
Turning to `CCc1cc(-c2nc(-c3cc(C)c(OC[C@@H](O)CO)c(CC)c3)no2)cnc1N(C)C(C)C` [Example 31, (S)-3-(2-Ethyl-4-{5-[5-ethyl-6-(isopropyl-methyl-amino)-pyridin-3-yl]-[1,2,4]oxadiazol-3-yl}-6-methyl-phenoxy)-propane-1,2-diol], the EC50 amounted to 17 nM.
On to `CCc1cc(-c2nc(-c3cc(C)c(OC[C@H](O)CNC(=O)CO)c(CC)c3)no2)cnc1N(C)C(C)C` [Example 34, N-[(R)-3-(2-Ethyl-4-{5-[5-ethyl-6-(isopropyl-methyl-amino)-pyridin-3-yl]-[1,2,4]oxadiazol-3-yl}-6-methyl-phenoxy)-2-hydroxy-propyl]-2-hydroxy-acetamide], for which the concentration giving a half-maximal response (EC50) was determined as 3 nM.
As to `CCc1cc(-c2nc(-c3cc(C)c(CCC(=O)NCC(=O)O)c(CC)c3)no2)cnc1N(CC)CC` [Example 44, (3-{4-[5-(6-Diethylamino-5-ethyl-pyridin-3-yl)-[1,2,4]oxadiazol-3-yl]-2-ethyl-6-methyl-phenyl}-propionylamino)-acetic acid], the EC50 was 4 nM.
As to `CCN(CC)c1ncc(-c2nc(-c3cc(C)c(OC[C@@H](O)CNC(=O)CO)c(C)c3)no2)cc1C` [Example 55, N-((S)-3-{4-[5-(6-Diethylamino-5-methyl-pyridin-3-yl)-[1,2,4]oxadiazol-3-yl]-2,6-dimethyl-phenoxy}-2-hydroxy-propyl)-2-hydroxy-acetamide], the concentration giving a half-maximal response (EC50) is 0.9 nM.
On the same count and under the same terms, under `CCN(CC)c1ncc(-c2nc(-c3cc(C)c(OC[C@@H](O)CNC(=O)CO)c(Cl)c3)no2)cc1C` [Example 56, N-((S)-3-{2-Chloro-4-[5-(6-diethylamino-5-methyl-pyridin-3-yl)-[1,2,4]oxadiazol-3-yl]-6-methyl-phenoxy}-2-hydroxy-propyl)-2-hydroxy-acetamide] stands 1.3 nM; under `CCN(CC)c1ncc(-c2nc(-c3ccc(OC[C@@H](O)CNC(=O)CO)cc3C)no2)cc1C` [Example 58, N-((S)-3-{4-[5-(6-Diethylamino-5-methyl-pyridin-3-yl)-[1,2,4]oxadiazol-3-yl]-3-methyl-phenoxy}-2-hydroxy-propyl)-2-hydroxy-acetamide], 14 nM.
Turning to `CCN(CC)c1ncc(-c2nc(-c3cc(C)c(OC[C@@H](O)CO)c(Cl)c3)no2)cc1C` [Example 63, (S)-3-{2-Chloro-4-[5-(6-diethylamino-5-methyl-pyridin-3-yl)-[1,2,4]oxadiazol-3-yl]-6-methyl-phenoxy}-propane-1,2-diol], the half-maximal effective concentration (EC50) worked out at 5.2 nM.
On the same count and under the same terms, under `CCN(CC)c1ncc(-c2nc(-c3cc(Cl)c(OC[C@@H](O)CO)c(OC)c3)no2)cc1C` [Example 64, (S)-3-{2-Chloro-4-[5-(6-diethylamino-5-methyl-pyridin-3-yl)-[1,2,4]oxadiazol-3-yl]-6-methoxy-phenoxy}-propane-1,2-diol] stands 8.9 nM.
For the compound `CCc1cc(-c2nnc(-c3cnc(N(CC)CC)c(C)c3)o2)cc(C)c1OC[C@@H](O)CNC(=O)CO` [Example 68, N-((2S)-3-{4-[5-(6-Diethylamino-5-methyl-pyridin-3-yl)-[1,3,4]oxadiazol-2-yl]-2-ethyl-6-methyl-phenoxy}-2-hydroxy-propyl)-2-hydroxy-acetamide], the EC50 was determined as 21.2 nM.

The assay is the same for the next values; noted with them: 35S-GTPγS binding, membranes of CHO cells expressing human S1P1; read-out: EC50.
For the compound `CCc1cc(-c2noc(-c3cnc(N4CCCC4)c(C)c3)n2)cc(C)c1OC[C@H](O)CN` [Example 18], the EC50 was over 10000 nM.
As to `CCc1cc(-c2noc(-c3cnc(N4CCCC4)c(C)c3)n2)cc(C)c1OC[C@@H](O)CN` [Example 19], the concentration for a half-maximal effect (EC50) was over 10000 nM.

The next assay relates to circulating lymphocytes. Nature of the assay: Assessment of in vivo efficacy: circulating lymphocytes after oral administration. The note with it: 6 h after oral administration of 10 mg/kg, normotensive male Wistar rats, compared to vehicle-treated group. On the set-up: species or system rat. How it is done:
Assessment of In Vivo Efficacy
The efficacy of the compounds of Formula (I) is assessed by measuring the circulating lymphocytes after oral administration of 3 to 30 mg/kg of a compound of Formula (I) to normotensive male Wistar rats. The animals are housed in climate-controlled conditions with a 12 h-light/dark cycle, and have free access to normal rat chow and drinking water. Blood is collected before and 3, 6 and 24 h after drug administration. Full blood is subjected to hematology using Advia Hematology system (Bayer Diagnostics, Zürich, Switzerland).
All data are presented as mean±SEM. Statistical analyses are performed by analysis of variance (ANOVA) using Statistica (StatSoft) and the Student-Newman-Keuls procedure for multiple comparisons. The null hypothesis is rejected when p<0.05.
For the compound `CCc1cc(-c2noc(-c3cnc(N(CC)CC)c(C)c3)n2)cc(C)c1OC[C@@H](O)CNC(=O)CO` [Example 8, N-((S)-3-{-4-[5-(6-Diethylamino-5-methyl-pyridin-3-yl)-[1,2,4]oxadiazol-3-yl]-2-ethyl-6-methyl-phenoxy}-2-hydroxy-propyl)-2-hydroxy-acetamide], the Lymphocyte counts was −66%.
With `CCc1cc(-c2nc(-c3cc(C)c(OC[C@H](O)CNC(=O)CO)c(CC)c3)no2)cnc1N(CC)CC` [Example 27, N-((R)-3-{4-[5-(6-Diethylamino-5-ethyl-pyridin-3-yl)-[1,2,4]oxadiazol-3-yl]-2-ethyl-6-methyl-phenoxy}-2-hydroxy-propyl)-2-hydroxy-acetamide], the Lymphocyte counts was −55%.
On the same count and under the same terms, the result for `CCc1cc(-c2nc(-c3cc(C)c(OC[C@@H](O)CNC(=O)CO)c(CC)c3)no2)cnc1N(CC)CC` [Example 28, N-((S)-3-{4-[5-(6-Diethylamino-5-ethyl-pyridin-3-yl)-[1,2,4]oxadiazol-3-yl]-2-ethyl-6-methyl-phenoxy}-2-hydroxy-propyl)-2-hydroxy-acetamide] reads −56%; that for `CCc1cc(-c2nc(-c3cc(C)c(OC[C@@H](O)CNC(=O)CO)c(CC)c3)no2)cnc1N1CCCC1` [Example 54, N-((S)-3-{2-Ethyl-4-[5-(5-ethyl-6-pyrrolidin-1-yl-pyridin-3-yl)-[1,2,4]oxadiazol-3-yl]-6-methyl-phenoxy}-2-hydroxy-propyl)-2-hydroxy-acetamide], −57%.
